Experimental findings from PubChem BioAssay AID1996 are described below.

As a reminder, the kinetic solubility is the concentration staying in solution when a stock, usually in DMSO, is diluted into the medium.

Values after ≈ are worked out from the molar mass of the structure shown.

The conditions of this data set: buffer; pH 7.4; 200.0 µM.
For `COc1ccc(C(=O)O)cc1S(=O)(=O)NCc1ccncc1`, the solubility (kinetic) was above 48.4 µg/mL.
`Cn1ccnc1SCC(=O)Nc1ccc(SC(F)F)cc1` gave a kinetic solubility above 49.4 µg/mL.
`O=S(=O)(Nc1ncccn1)c1ccc(F)cc1` had a kinetic solubility above 38 µg/mL.
Take `COc1ccccc1NC(=O)CN(Cc1ccco1)C(=O)c1ccc(N2CCCC2=O)cc1`: the kinetic solubility was determined as 64.9 µg/mL (≈ 145 µM).
`Cc1cc(=O)oc(C)c1C(=O)NCCN(C)Cc1ccccc1` showed a solubility (kinetic) above 47.2 µg/mL.
Then `COCC(C)NC(=O)COCc1cc(-c2ccc3c(c2)OCO3)on1` (stereo unspecified), with 39 µg/mL (≈ 112 µM); and `Fc1cccc(/C=C2\CCCC3=C2NC(=S)NC3c2cccc(F)c2)c1` (stereo unspecified), with 7 µg/mL (≈ 19 µM); and `Nc1cccnc1Oc1ccc(F)cc1`, with 28.8 µg/mL (≈ 141 µM).
Consider `CS(=O)(=O)O.OC(CCN1CCCCC1)(c1ccccc1)c1ccccc1`, for which the solubility (kinetic) is above 58.7 µg/mL.
Under `Cc1ccc(C(=O)Nc2ncccc2C)o1` stands above 32.4 µg/mL.
In the case of `Cc1c(Cl)cccc1NC(=O)C1CCCN(S(C)(=O)=O)C1` (stereo unspecified), the solubility (kinetic) amounted to 7.3 µg/mL (≈ 22.1 µM).
Then `CC(C)C(=O)Nc1cccc(-c2nc3ncccc3o2)c1`, with 37.5 µg/mL (≈ 133 µM).
Compound `COc1cc(CNCCc2ccc3c(c2)OCO3)ccc1O.Cl` returned a kinetic solubility above 50.7 µg/mL.
As to `O=C(Nc1ccc(N2CCCC2)cc1)c1ccccc1[N+](=O)[O-]`, the kinetic solubility amounted to 2.4 µg/mL (≈ 7.71 µM).
Under `CC(C)[C@H](NC(=O)c1ccccc1)C(=O)NCCc1ccccc1` stands 10.3 µg/mL (≈ 31.7 µM).
Under `CC(C)(C)NC(=O)NC(=O)CN1CCCCC1` stands above 36.2 µg/mL; under `CC(C)c1ccc(C(=O)NN2CCOCC2)cc1`, above 37.2 µg/mL.
For `CCNC(=O)COC(=O)/C=C/c1cccs1`, the solubility (kinetic) is above 35.9 µg/mL.
Under `CN(C)c1ccc(/C=N/O)cc1` stands above 24.6 µg/mL.
The compound `O=C(COc1ccccc1)N1CCCC1` yielded a solubility (kinetic) of 26.7 µg/mL (≈ 130 µM).
Turning to `O=C(CN1CCN(c2ccc(F)cc2)CC1)c1ccc(O)cc1O`, the kinetic solubility is 12.7 µg/mL (≈ 38.4 µM).
Then `CCOc1ncccc1C(=O)Nc1cc(C(F)(F)F)ccc1N1CCOCC1`, with 4.1 µg/mL (≈ 10.4 µM); and `CCc1ccnc(NC(=O)NS(=O)(=O)c2ccc(C)cc2)c1`, with 47.6 µg/mL (≈ 149 µM); and `O=C(COc1ccccc1Cl)NCCCNC(=O)c1cnccn1`, with 51.5 µg/mL (≈ 148 µM).
Under `CC1CN(C)C(C)C/C1=N/Oc1ccccc1[N+](=O)[O-].Cl` (stereo unspecified) stands 46.2 µg/mL.
Turning to `Cc1cccnc1NC(=O)c1ccc2c(c1)NC(=O)C(C)S2` (stereo unspecified), the solubility (kinetic) is above 47 µg/mL.
Turning to `CCOC(=O)NC(=O)CSc1ccc(S(=O)(=O)N2CCCCC2)cn1`, the solubility (kinetic) was above 58.1 µg/mL.
Compound `CC(=O)c1c(C)[nH]c(C(=O)OCC(=O)Nc2cccnc2Cl)c1C` yielded a kinetic solubility above 52.5 µg/mL.
As to `Cc1ccc(Cn2ncc(C)c2N)o1`, the solubility (kinetic) is above 28.7 µg/mL.
Regarding `CCN(c1ccccc1)S(=O)(=O)c1ccc(N2CCN(c3ccc(OC)cc3)CC2)nc1`, the solubility (kinetic) turned out to be 1.2 µg/mL (≈ 2.65 µM).
Then `O=C(NN1C(=O)NC2(CCCCC2)C1=O)c1cc(F)cc(F)c1`, with above 48.5 µg/mL.
Consider `O=C1CN(C(=O)COC(=O)c2ccccc2O)c2ccccc2N1`, for which the kinetic solubility came out at 3.5 µg/mL (≈ 10.7 µM).
In the case of `Cc1cccc(NC(=O)c2cc(C)nc3ccccc23)c1`, the solubility (kinetic) came to 0.7 µg/mL (≈ 2.53 µM).
In the case of `CCc1ccccc1NC(=O)CN(C)Cc1c(O)ccc2ccccc12`, the solubility (kinetic) was determined as 22.8 µg/mL (≈ 65.4 µM).
`COc1ccc(NC(=O)c2cc([N+](=O)[O-])ccc2O)cc1` returned a solubility (kinetic) above 43.2 µg/mL.
`COc1ccc(OCC(O)CNC(=O)Nc2ccccc2)cc1` (stereo unspecified) came in with a solubility (kinetic) of 26.9 µg/mL (≈ 85 µM).
Under `CC(=O)NC(c1ccccc1)c1cc(Cl)c2cccnc2c1O` (stereo unspecified) stands 0.4 µg/mL (≈ 1.22 µM); under `COc1ccc(NC(=O)c2sc3nc(C)cc(C)c3c2N)c(OC)c1`, below 0.3 µg/mL; under `CCOc1ccc(S(=O)(=O)NC2CCCCCC2)cc1`, below 0.6 µg/mL.
For `COc1ccc(OCCCC(=O)Nc2nccs2)cc1`, the solubility (kinetic) was above 43.9 µg/mL.
As to `COc1cc(S(=O)(=O)NCc2ccccn2)ccc1Cl`, the solubility (kinetic) is above 46.9 µg/mL.
Regarding `COc1ccc(CCNCCN2CCOCC2)cc1.Cl`, the solubility (kinetic) stood at 24.9 µg/mL.
`CSCCC(NC(=O)COc1ccccc1)C(=O)O` (stereo unspecified) gave a solubility (kinetic) of 31.7 µg/mL (≈ 112 µM).
`CC(C)CC(=O)Nc1ccc(S(=O)(=O)Nc2nccs2)cc1` displayed a kinetic solubility above 50.9 µg/mL.
`O=C(O)CSc1nc2ccccc2s1` came in with a kinetic solubility above 33.8 µg/mL.
Then `O=C(Oc1ccc(C(=S)N2CCOCC2)cc1)c1cccc([N+](=O)[O-])c1`, with below 0.4 µg/mL; and `CC(NC(=S)N1CCN(c2ccccc2)CC1)c1ccccc1` (stereo unspecified), with 0.4 µg/mL (≈ 1.23 µM); and `CC(=O)c1c(C)[nH]c(C(=O)OCC(=O)Nc2ccc3c(c2)OCCO3)c1C`, with 3.8 µg/mL (≈ 10.2 µM).
As for `CCOC(=O)/C=c1\s/c(=C(\C#N)C(N)=O)n(-c2ccccc2)c1=O`, the kinetic solubility is 8.4 µg/mL (≈ 24.5 µM).
The compound `COCCNC(=O)c1ccc2c(c1)ncn2-c1cccc(C)c1` returned a solubility (kinetic) above 46.4 µg/mL.
In the case of `COc1ccc(C(NC(=O)CC(C)C)c2c(O)ccc3ccccc23)cc1` (stereo unspecified), the solubility (kinetic) was below 0.8 µg/mL.
With `CCN(CC)S(=O)(=O)c1ccc(-c2csc(C)n2)cc1`, the kinetic solubility is 37.3 µg/mL (≈ 120 µM).
Then `COC(=O)c1sccc1NC(=O)c1cccc(Cl)c1`, with below 0.6 µg/mL.
Then `OCCN1CCN(C(=S)Nc2ccccc2)CC1`, with above 39.8 µg/mL.
In turn, `Cc1cc(NC(=O)c2cc([N+](=O)[O-])ccc2Cl)no1` registered a kinetic solubility above 42.2 µg/mL.
In the case of `CSc1ncc(C(=O)Nc2ccc(Br)cn2)c(C)n1`, the solubility (kinetic) turned out to be 47 µg/mL (≈ 139 µM).
Under `CS(=O)(=O)Nc1ccc(-c2cn3cccnc3n2)cc1` stands above 43.2 µg/mL; under `Cc1sc(NC(=O)C2=COCCO2)c(C#N)c1C`, 5.9 µg/mL (≈ 22.3 µM); under `COc1cccc(NC(=O)Nc2ccc(Br)cn2)c1`, below 0.2 µg/mL.
Compound `CC(Cl)C(=O)Nc1cc(C(C)(C)C)nn1-c1ccccc1` (stereo unspecified) returned a solubility (kinetic) above 45.9 µg/mL.
The compound `COc1ccc(CCNC(=O)Cc2ccc([N+](=O)[O-])cc2)cc1OC` registered a kinetic solubility of 51.3 µg/mL (≈ 149 µM).
As for `CC(Cc1ccccc1)N1C(=O)c2ccccc2C1=O` (stereo unspecified), the kinetic solubility was 10.6 µg/mL (≈ 40 µM).
In the case of `Cn1c(=S)[nH]c2scc(-c3cccs3)c2c1=O`, the solubility (kinetic) is above 42.1 µg/mL.
Then `O=C(O)c1ccccc1/C=N/NC(=S)NCc1ccccc1`, with above 47 µg/mL; and `CC(C(O)c1cc(=O)c(OCc2ccccc2)co1)[N+](=O)[O-]` (stereo unspecified), with 33.1 µg/mL (≈ 108 µM).
Consider `Cc1ccccc1OCC(=O)N1CCc2ccccc2C1`, for which the kinetic solubility worked out at 38.6 µg/mL (≈ 137 µM). This solubility kinetic and that of the compound before are within 1.5-fold of each other.
Consider `O=C(CCSCc1ccccc1Cl)NCc1ccco1`, for which the kinetic solubility was above 46.5 µg/mL.
On to `CC1CCN(C(=O)c2ccc3ccccc3c2)CC1`, for which the solubility (kinetic) turned out to be 23.8 µg/mL (≈ 93.9 µM).
`Cc1ccc(Sc2nc(C)c([N+](=O)[O-])c(C)c2C#N)cc1`: the kinetic solubility was found to be 0.7 µg/mL (≈ 2.34 µM).
Then `Cc1nc2cc(NS(=O)(=O)c3ccccc3)ccc2n1C`, with 15.6 µg/mL (≈ 51.8 µM).
`Cc1cc(NC(=O)CN2C(=O)NC(CC(C)C)C2=O)no1` (stereo unspecified) gave a kinetic solubility above 44.1 µg/mL.
Compound `Clc1ccccc1N1CCN(Cc2ccco2)CC1` displayed a solubility (kinetic) of 30.3 µg/mL (≈ 109 µM).
For the compound `O=C1Nc2ccccc2/C1=C/c1ccccc1Cl`, the kinetic solubility amounted to 3.2 µg/mL (≈ 12.5 µM).
In turn, `CC(C(=O)Nc1ccc(C#N)cc1)N(C)Cc1cccs1` (stereo unspecified) showed a solubility (kinetic) above 44.9 µg/mL.
Then `CCOc1cccc(C(=O)N2CCCN(C)CC2)c1`, with 35.6 µg/mL (≈ 136 µM).
Then `O=S(=O)(c1ccc2[nH]ccc2c1)N1CCCCCC1`, with above 41.8 µg/mL.
